From publication PMC7318243, “Computationally Empowered Workflow Identifies Novel Covalent Allosteric Binders for KRAS^G12C” (Chemmedchem, 2020)

Legend:
[1] = biological target: T1, KRAS^G12C (recombinant KRAS mutant G12C, C51S, C80L, C118S) (Homo sapiens, UniProt P01116, C118S/C51S/C80L/G12C); assay: Covalent binding assay by mass spectrometry (intact mass, % covalent adduct); settings: 25 µM protein, 25 µM compound, room temperature, 2 h
T1 construct: made in house
Description: (§1) One of the most synthetically accessible compounds, 1,6‐naphthyridin‐5(6H)‐one (1), was prepared (Table 1; Scheme S1). Structurally close to 1, isoquinolin‐1(2H)‐one 2 derivatives were also considered for the exploration of structure‐activity relationships (SAR). To measure the proportion of inhibitor reacting with Cys12 of the KRAS^G12C mutant, the bound/unbound protein ratio was quantified by mass spectrometry (MS). Then, the inhibition potency of these compounds towards KRAS^G12C was evaluated in biochemical assays measuring the activation of GDP‐bound KRAS^G12C or KRAS^WT by SOS1.19 […]
(§2) 3.4 Covalent binding assay by mass spectrometry
(§3) The percentage of covalent adduct formation at KRAS G12C was determined by intact mass determination. To this end, 25 µM recombinant KRAS mutant (G12C , C51S, C80L, C118S) was incubated with 25 µM compound (1% v/v DMSO final concentration) in 50 mM Tris, pH 8.0, 50 mM NaCl at room temperature for 2 h. Reaction mixture (20 µL) was acidified by addi tion of 4% v/v TFA (4 µL). LC-MS analysis was performed using a Waters SYNAPT G2 -S quadrupole time -of-flight mass spectrometer connected to a Waters nanoA CQUITY UPLC system. Samples were loaded onto a 2.1 × 5 mm MassPrep C4 guard column (Waters) and desalted with a short gradient (3 min) of increasing concentration of acetonitrile at a flow rate of 100 µL/min. Spectra were analyzed by using MassLynx v4.1 software and deconvoluted with the MaxEnt1 algorithm. Percent conversion was determined by the ratio of signal intensities of […] and KRASG12C + inhibitor. […]

KRAS^G12C [2] = biological target: T2, KRAS^G12C (Homo sapiens, UniProt P01116, G12C); assay: Biochemical assay: KRAS^G12C activation by SOS1CAT (HTRF, fluorescent GTP loading); settings: 180 min pre-incubation with KRAS before addition of SOS1
T2 construct: KRASG12C (aa 1–169, G12C) were produced for the biochemical assay; made in house
Description: as §1
3.3 Biochemical activity assays
Measurement of (i) KRASG12C activation by SOS1CAT and (ii) wild-type KRAS activation by SOS1CAT was performed following the previously described protocol, [19] with a pre-incubation time of the test compound with KRAS proteins extended to 180 min before addi tion of SOS1.
This assay quantifies SOS1 CAT mediated loading of KRAS G12C–GDP with a fluorescent GTP analogue. Detection of successful loading was achieved by measuring resonance energy transfer from anti-GST-terbium (FRET donor) bound to GST -KRASG12C to the loaded fluorescent GTP analogue (FRET acceptor). The fluorescent GTP analogue EDA –GTP–DY-647P1 [2'/3'-O-(2-aminoethyl-carbamoyl)guanosine-5'-triphosphate labelled with DY-647P1 (Dyomics GmbH, Germany)] was synthesized by Jena Bioscience (Germany) a nd supplied as a 1 mM aqueous solution. A KRASG12C working solution was prepared in assay buffer [10 mM HEPES pH 7.4 (AppliChem), 150 mM NaCl (Sigma), 5 mM MgCl2 (Sigma), 1 mM DTT (Thermo Fisher), 0.05% BSA Fraction V pH 7.0 (ICN Biomedicals), 0.0025% (v/v) Igepal (Sigma)] containing 100 nM GST-KRASG12C and 2 nM anti-GST-terbium (Cisbio, France). A SOS1 CAT working solution was prepared in an assay buffer containing 20 nM SOS1CAT and 200 nM EDA–GTP–DY-647P1. An inhibitor control solution was prepared in an assay buffer containing 200 nM EDA–GTP–DY-647P1 without […]
SOS1CAT. All steps of the assay were performed at 20 °C. A volume of 2.5 µL of the KRASG12C working solution was added to all wells of the test plate using a Multidrop dispenser (Thermo LabSystems). After 180 min, 2.5 µL of the SOS1CAT working solution was added to all wells, except for the inhibitor control solution wells. After 30 min incubation, HTRF was measured. […]
(§4) SYNAPT G2-S quadrupole time-of-flight mass spectrometer connected to a Waters nanoAcquity UPLC system. Samples were loaded on a 2.1 x 5 mm mass prep C4 guard column (Waters) and desalted with a short grad ient (3 min) of increasing concentrations of acetonitrile at a flow rate of 100 µL/min. Spectra were analyzed by using MassLynx v4.1 software and deconvoluted with the MaxEnt1 algorithm. Percent of conversion was determined by the ratio of signal intensiti es of apo-KRAS and KRAS + inhibitor.

KRAS^G12C [3] = biological target: T3, KRAS^G12C (Homo sapiens, UniProt P01116, C118S/C51S/C80L/G12C); assay: Determination of kinact and KI by LC-MS occupancy over time; type: binding; settings: for k inact (maximum potential rate of KRAS^G12C inactivation) / Ki: 10 µM KRAS^G12C, 10-100 µM inhibitor, 0-180 min; for Ki: read-out: K I (binding constant of the reversible binding event)
T3 construct: made in house
Description: as §2, §3
3.6 Determination of k inact and KI
The percentage of covalent adduct formation at KRASG12C was determined for compounds 1, 2 and 13 by intact mass determination. To this end, 25 µM of the same recombinant KRAS mutant as for the covalent binding assay (G12C, C51S, C80L, C118S) were incubated with 25 µM of compound (1% v/v final DMSO concentration) in 50 mM Tris, pH8, 50 mM NaCl at room temperature for 2 h. The reaction was acidified by adding 4 µL of 4% v/v TFA to 20 µL reaction […]
as §4, with “Liquid chromatography-mass spectrometry (LC-MS) analysis was performed using a Waters SYNAPT” for “SYNAPT”
The kinact / KI ratio was determined by measuring the total occupancy (% conversion) over time at different inhibitor concentrations. In detail, 10 µM KRASG12C were incubated in the same reaction buffer as above with 10 µM, 25 µM, 50 µM or 100 µM of inhibitor at different reaction times (0, 2, 20, 60 and 180 min), the reaction was quenched by adding 2 µL of 4% v/v TFA to 10 µL reaction volume and subsequently measured by LC -MS as described above. The observed occupancy percentage over time at a given inhibitor concentration was fit to the following equation using […]
% conversion = vi [1 − exp(−k ∗ t)]
The obtained kobs values were then plotted as a function of inhibitor concentration and fit to the […]
to yield the kinact and KI.[26]

MS assay [% binding] (KRAS^G12C bound fraction) [1] [%] | IC50 (KRAS^G12C [2]) [µM] | k inact/K I (KRAS^G12C [3]) [M⁻¹ s⁻¹] | k inact (maximum potential rate of KRAS^G12C inactivation) (KRAS^G12C [3]) [s⁻¹] | Ki (KRAS^G12C [3]) [µM] | SMILES
80 | 2.8 | 26.72 | 0.00105 | 39.3 | C=CC(=O)N1CCC(c2cc3ncc(-c4c(O)cccc4F)cc3c(=O)[nH]2)C1 (stereo not drawn) [Compound 1, 3-(2-Fluoro-6-hydroxyphenyl)-7-[1-(prop-2-enoyl)pyrrolidin-3-yl]-1,6-naphthyridin-5(6H)-one]
35 | 4.7 | 55.05 | 0.00024 | 4.4 | C=CC(=O)N1CCC(c2cc3ccc(-c4c(O)cccc4F)cc3c(=O)[nH]2)C1 (stereo not drawn) [Compound 2, 7-(2-Fluoro-6-hydroxyphenyl)-3-[1-(prop-2-enoyl)pyrrolidin-3-yl]isoquinolin-1(2H)-one]
73 | 1.3 | 49.38 | 0.00159 | 32.2 | C=CC(=O)N1CCC(c2cc3cnc(-c4c(O)cccc4F)cc3c(=O)[nH]2)C1 (stereo not drawn) [Compound 13, 7-(2-Fluoro-6-hydroxyphenyl)-3-[1-(prop-2-enoyl)pyrrolidin-3-yl]-2,6-naphthyridin-1(2H)-one]
